From PubChem BioAssay AID212 (DTP/NCI, 2004)
Several values for one entry are separate records, joined by “and”; a condition that tells them apart may be missing. Equal entries are not always repeated. Results filed as inconclusive are left out.

Test system: BDF1 mice, colon carcinoma 38 sc, T/C %
Assay: NCI In Vivo Anticancer Drug Screen. Data for tumor model Colon Carcinoma 38 (subcutaneous) in B6D2F1 (BDF1) mice
Method: The antitumor activity of compounds was measured in mice bearing transplantable tumors. Survival or tumor size were measured and the results are expressed as the measurement made in the treated group (T) divided by the measurement made in the vehicle treated control group (C). The tumor model used in this assay is Colon Carcinoma 38 (subcutaneous) in B6D2F1 (BDF1) mice

For `[N-]=[N+]=CC(=O)CCC(N)C(=O)O` (stereo not given), the T/C (endpoint: median tumor weight (est.), dose: 0.78 mg/kg/injection, schedule: Q07DX003 (ip), vehicle: saline, higher = larger tumour) was 57 % of control, the T/C (endpoint: median tumor weight (est.), dose: 1.56 mg/kg/injection, schedule: Q07DX003 (ip), vehicle: saline, higher = larger tumour) was 48 % of control and the T/C (endpoint: median tumor weight (est.), dose: 3.13 mg/kg/injection, schedule: Q07DX003 (ip), vehicle: saline, higher = larger tumour) was 73 % of control. The T/C (endpoint: median tumor weight (est.), dose: 50.0 mg/kg/injection, schedule: Q07DX003 (ip), vehicle: saline, higher = larger tumour) was 10 % of control.
With `CC1=C2CC(C)(C)/C=C\C(=O)/C(C)=C\C3=C[C@H](C)C[C@]3(O2)C1=O` the T/C (endpoint: median tumor weight (est.), dose: 1.5 mg/kg/injection, schedule: Q07DX002 (ip), vehicle: Klucel (hydroxypropylcellulose) (HPC), higher = larger tumour) was 80 % of control, the T/C (endpoint: median tumor weight (est.), dose: 3.0 mg/kg/injection, schedule: Q07DX002 (ip), vehicle: Klucel (hydroxypropylcellulose) (HPC), higher = larger tumour) was 100 % of control and the T/C (endpoint: median tumor weight (est.), dose: 6.0 mg/kg/injection, schedule: Q07DX002 (ip), vehicle: Klucel (hydroxypropylcellulose) (HPC), higher = larger tumour) was 157 % of control.
In the case of `CCN1/C(=C/C=C/C=C/c2sc3ccccc3[n+]2CC)Sc2ccccc21`, the T/C (endpoint: median tumor weight (est.), dose: 0.03 mg/kg/injection, schedule: Q07DX002 (ip), vehicle: saline, higher = larger tumour) is reported as 151 % of control, the T/C (endpoint: median tumor weight (est.), dose: 0.03 mg/kg/injection, schedule: Q07DX002 (ip), vehicle: suspension in saline, higher = larger tumour) is reported as 59 % of control and the T/C (endpoint: median tumor weight (est.), dose: 0.06 mg/kg/injection, schedule: Q07DX002 (ip), vehicle: saline, higher = larger tumour) is reported as 167 % of control. The T/C (endpoint: median tumor weight (est.), dose: 0.06 mg/kg/injection, schedule: Q07DX002 (ip), vehicle: suspension in saline, higher = larger tumour) was 104 % of control, the T/C (endpoint: median tumor weight (est.), dose: 0.12 mg/kg/injection, schedule: Q07DX002 (ip), vehicle: saline, higher = larger tumour) was 122 % of control and the T/C (endpoint: median tumor weight (est.), dose: 0.12 mg/kg/injection, schedule: Q07DX002 (ip), vehicle: suspension in saline, higher = larger tumour) was 100 % of control. For the same molecule, the T/C (endpoint: median tumor weight (est.), dose: 0.25 mg/kg/injection, schedule: Q07DX002 (ip), vehicle: suspension in saline, higher = larger tumour) was 104 % of control, the T/C (endpoint: median tumor weight (est.), dose: 0.5 mg/kg/injection, schedule: Q07DX002 (ip), vehicle: saline, higher = larger tumour) was 162 % of control and the T/C (endpoint: median tumor weight (est.), dose: 0.5 mg/kg/injection, schedule: Q07DX002 (ip), vehicle: suspension in saline, higher = larger tumour) was 109 % of control. For the same molecule, the T/C (endpoint: median tumor weight (est.), dose: 1.0 mg/kg/injection, schedule: Q07DX002 (ip), vehicle: saline, higher = larger tumour) was 197 % of control.
With `CC(=O)Oc1c[nH]c(=O)[nH]c1=O` the T/C (endpoint: median tumor weight (est.), dose: 50.0 mg/kg/injection, schedule: Q07DX002 (ip), vehicle: distilled water + Tween-80, higher = larger tumour) was 107 % of control, the T/C (endpoint: median tumor weight (est.), dose: 100.0 mg/kg/injection, schedule: Q07DX002 (ip), vehicle: distilled water + Tween-80, higher = larger tumour) was 108 % of control and 121 % of control and the T/C (endpoint: median tumor weight (est.), dose: 400.0 mg/kg/injection, schedule: Q07DX002 (ip), vehicle: distilled water + Tween-80, higher = larger tumour) was 124 % of control. For the same molecule, the T/C (endpoint: median tumor weight (est.), dose: 800.0 mg/kg/injection, schedule: Q07DX002 (ip), vehicle: distilled water + Tween-80, higher = larger tumour) was 121 % of control and 102 % of control.
In the case of `COc1cc2c3c(cccc3c1)C(=O)N(CCN(C)C)C2=O`, the T/C (endpoint: median tumor weight (est.), dose: 10.0 mg/kg/injection, schedule: Q07DX002 (ip), vehicle: saline with Tween-80, higher = larger tumour) is reported as 86 % of control and 103 % of control, the T/C (endpoint: median tumor weight (est.), dose: 40.0 mg/kg/injection, schedule: Q07DX002 (ip), vehicle: saline with Tween-80, higher = larger tumour) is reported as 73 % of control and 92 % of control and the T/C (endpoint: median tumor weight (est.), dose: 80.0 mg/kg/injection, schedule: Q07DX002 (ip), vehicle: saline with Tween-80, higher = larger tumour) is reported as 72 % of control. For the same molecule, the T/C (endpoint: median tumor weight (est.), dose: 160.0 mg/kg/injection, schedule: Q07DX002 (ip), vehicle: saline with Tween-80, higher = larger tumour) was 73 % of control.
In the case of `CC1CCC(NC(=O)N(CCCl)N=O)CC1` (stereo not given), the T/C (endpoint: median survival time, dose: 3.3 mg/kg/injection, schedule: Q01DX010 (oral), vehicle: saline with Tween-80, higher = longer survival) is reported as 115 % of control, the T/C (endpoint: median survival time, dose: 5.0 mg/kg/injection, schedule: Q04DX005 (ip), vehicle: other, higher = longer survival) is reported as 93 % of control and the T/C (endpoint: median survival time, dose: 5.5 mg/kg/injection, schedule: Q01DX010 (oral), vehicle: saline with Tween-80, higher = longer survival) is reported as 99 % of control. For the same molecule, the T/C (endpoint: median survival time, dose: 9.0 mg/kg/injection, schedule: Q01DX010 (oral), vehicle: saline with Tween-80, higher = longer survival) was 100 % of control, the T/C (endpoint: median survival time, dose: 10.0 mg/kg/injection, schedule: Q04DX005 (ip), vehicle: other, higher = longer survival) was 122 % of control and the T/C (endpoint: median survival time, dose: 20.0 mg/kg/injection, schedule: Q04DX005 (ip), vehicle: other, higher = longer survival) was 153 % of control. For the same molecule, the T/C (endpoint: median tumor weight (est.), dose: 4.0 mg/kg/injection, schedule: Q07DX002 (ip), vehicle: Klucel (hydroxypropylcellulose) (HPC), higher = larger tumour) was 61 % of control, the T/C (endpoint: median tumor weight (est.), dose: 8.0 mg/kg/injection, schedule: Q07DX002 (ip), vehicle: Klucel (hydroxypropylcellulose) (HPC), higher = larger tumour) was 53 % of control and the T/C (endpoint: median tumor weight (est.), dose: 16.0 mg/kg/injection, schedule: Q07DX002 (ip), vehicle: Klucel (hydroxypropylcellulose) (HPC), higher = larger tumour) was 64 % of control. For the same molecule, the T/C (endpoint: median tumor weight (est.), dose: 32.0 mg/kg/injection, schedule: Q07DX002 (ip), vehicle: Klucel (hydroxypropylcellulose) (HPC), higher = larger tumour) was 18 % of control.
